Results on twelve compounds are retold here after patent US11590116B2 (THERAVANCE BIOPHARMA R&D IP, LLC, priority 2019, dated 2023).

In test [1] the target is T1, recombinant human ALK5 (TGF-βR1) protein (Homo sapiens, UniProt P36897).
T1 construct: purchased Life Technologies PR9075A
T1 sequence (P36897 34-503): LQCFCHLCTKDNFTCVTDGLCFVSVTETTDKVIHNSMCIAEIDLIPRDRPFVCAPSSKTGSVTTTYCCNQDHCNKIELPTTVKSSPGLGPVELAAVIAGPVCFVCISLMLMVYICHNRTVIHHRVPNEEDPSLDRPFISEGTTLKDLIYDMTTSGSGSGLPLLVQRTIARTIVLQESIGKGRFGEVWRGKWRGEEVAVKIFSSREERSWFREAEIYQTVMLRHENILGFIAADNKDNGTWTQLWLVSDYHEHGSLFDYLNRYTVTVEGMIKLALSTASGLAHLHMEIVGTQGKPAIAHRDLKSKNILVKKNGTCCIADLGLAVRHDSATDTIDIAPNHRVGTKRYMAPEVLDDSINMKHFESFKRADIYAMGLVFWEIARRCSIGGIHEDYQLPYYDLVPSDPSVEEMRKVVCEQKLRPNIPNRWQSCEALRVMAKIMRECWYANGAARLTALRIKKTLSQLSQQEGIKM
Put plainly: Biochemical ALK5 (TGF-βR1) assay to measure pKi (LANCE Ultra ULight kinase assay). As to conditions: apparent pKi from pIC50 by Cheng-Prusoff, read-out: ALK5 pKi (converted). Summed up: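 Compounds (10 μM to 25 pM) were preincubated 60 min at room temperature with enzyme, then reactions were started with ATP (125 μM stock, 5× final) and run 60 min at 37 °C. EDTA-containing Eu-anti-phospho-Topo IIα (Thr1342) antibody stopped the reaction; TR-FRET read at 665 nm. pIC50 from 4-parameter fit, converted to pKi via Cheng-Prusoff.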
On the technique in general: Time-resolved FRET reads energy transfer from a long-lived donor to a nearby acceptor.

Test [2] concerns TGF-β-stimulated SMAD3 phosphorylation in BEAS-2B cells. Put plainly: Cellular ALK5 potency assay, inhibition of TGF-β stimulated pSMAD3 formation in BEAS-2B cells. It counts as cell-based. To be noted: Homo sapiens; inhibition of TGF-β stimulated pSMAD3 formation, BEAS-2B cells; read-out: BEAS2B pIC50 (converted). The procedure, abridged:
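Cells seeded overnight; rinse with supplemented HBSS; compound 1 h at 37 °C; TGF-β 10 ng/mL final, 30 min; lyse; AlphaLISA acceptor and detector beads 2 h apart, read next day. Potency expressed as pIC50.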

Regarding `Cc1cccc(-c2[nH]ncc2-c2ccc3ncc(C(=O)O)cc3c2)n1` [Compound 783, 6-[5-(6-methyl-2-pyridyl)-1H-pyrazol-4-yl]quinoline-3-carboxylic Acid], the Ki in test [1] is 3.98 to 31.6 nM. Besides, in test [2], the IC50 is 1580 to 10000 nM.

Consider `Cc1nc(-c2n[nH]cc2-c2ccc3ncc(N4CCN(C(C)C)CC4)cc3n2)ccc1F` [Compound 687, 2-[3-(5-fluoro-6-methyl-2-pyridyl)-1H-pyrazol-4-yl]-7-(4-isopropylpiperazin-1-yl)-1,5-naphthyridine], for which the Ki in test [1] is less than 0.0316 nM. Besides, the IC50 in test [2] is 25.1 to 158 nM.

`Cc1cccc(-c2[nH]cnc2-c2ccc3ncc(-c4ccc(C(=O)O[C@H]5CCNC5)cc4)cc3c2)n1` [Compound 718, [(3S)-pyrrolidin-3-yl]4-[6-[5-(6-methyl-2-pyridyl)-1H-imidazol-4-yl]-3-quinolyl]benzoate]: the Ki in test [1] is 0.0398 to 0.316 nM. In addition, in test [2], the IC50 is 25.1 to 158 nM.

Regarding `Cc1cccc(-c2[nH]cnc2-c2ccc3ncc(C4=CCC(C(=O)OC5CCNCC5)CC4)cc3c2)n1` (stereo not drawn) [Compound 444, 4-piperidyl 4-[6-[5-(6-methyl-2-pyridyl)-1H-imidazol-4-yl]-3-quinolyl]cyclohex-3-ene-1-carboxylate], the Ki in test [1] was 0.0398 to 0.316 nM. Moreover, the IC50 in test [2] was 25.1 to 158 nM.

On to `Cc1cccc(-c2[nH]ncc2-c2ccc3nccc(C(=O)OC[C@@H]4CCCCN4)c3c2)n1` [Compound 1085, [(2S)-2-piperidyl]methyl 6-[5-(6-methyl-2-pyridyl)-1H-pyrazol-4-yl]quinoline-4-carboxylate], for which the Ki in test [1] was 0.398 to 3.16 nM. The IC50 in test [2] is 25.1 to 158 nM.

Consider `CNCCn1cc(-c2cnc3ccc(-c4c(-c5cccc(C)n5)n[nH]c4N)nc3c2)cn1` [Compound 512, 4-[7-[1-[2-(methylamino)ethyl]pyrazol-4-yl]-1,5-naphthyridin-2-yl]-3-(6-methyl-2-pyridyl)-1H-pyrazol-5-amine], for which the Ki in test [1] was 0.0398 to 0.316 nM. For the same compound, the IC50 in test [2] is 200 to 1260 nM.

In the case of `Cc1cccc(-c2[nH]cnc2-c2ccc3ncc(C(=O)O[C@@H]4CCNC4)cc3c2)n1` [Compound 1149, [(3R)-pyrrolidin-3-yl] 6-[5-(6-methyl-2-pyridyl)-1H-imidazol-4-yl]quinoline-3-carboxylate], the Ki in test [1] was 0.398 to 3.16 nM. Also, the IC50 in test [2] was 200 to 1260 nM.

As to `CC(=O)NC1CC=C(c2cnc3ccc(-c4nc[nH]c4-c4cccc(C)n4)cc3c2)CC1` (stereo not drawn) [Compound 26, N-[4-[6-[5-(6-methyl-2-pyridyl)-1H-imidazol-4-yl]-3-quinolyl]cyclohex-3-en-1-yl]acetamide], the Ki in test [1] is less than 0.0316 nM. For the same compound, in test [2], the IC50 was less than 20 nM.

For `Cc1cccc(-c2[nH]cnc2-c2ccc3ncc(C(=O)O[C@@H]4CC[C@@H](N)C4)cc3c2)n1` (racemic) [Compound 766, [rac-(1R,3R)-3-aminocyclopentyl] 6-[5-(6-methyl-2-pyridyl)-1H-imidazol-4-yl]quinoline-3-carboxylate], the Ki in test [1] is 0.0398 to 0.316 nM. The IC50 in test [2] is 25.1 to 158 nM.

In the case of `CNCCn1cc(-c2cnc3ccc(-c4c(-c5cccc(C)n5)nnn4C)cc3c2)cn1` [Compound 628, N-methyl-2-(4-(6-(1-methyl-4-(6-methylpyridin-2-yl)-1H-1,2,3-triazol-5-yl)quinolin-3-yl)-1H-pyrazol-1-yl)ethan-1-amine], the Ki in test [1] was less than 0.0316 nM. In addition, the IC50 in test [2] is 25.1 to 158 nM.

With `Cc1cccc(-c2n[nH]cc2-c2ccc3ncc(-c4cncnc4)cc3n2)n1` [Compound 416, 2-[3-(6-methyl-2-pyridyl)-1H-pyrazol-4-yl]-7-pyrimidin-5-yl-1,5-naphthyridine], the Ki in test [1] was 0.0398 to 0.316 nM. Also, the IC50 in test [2] is less than 20 nM.

With `COc1nc(-c2ccc3ncc(C4=CCC5(CCNCC5)CC4)cc3c2)c(-c2cccc(C)n2)[nH]1` [Compound 1251, 9-[6-[2-methoxy-5-(6-methyl-2-pyridyl)-1H-imidazol-4-yl]-3-quinolyl]-3-azaspiro[5.5]undec-9-ene], in test [1], the Ki was less than 0.0316 nM. For the same compound, in test [2], the IC50 is 25.1 to 158 nM.
